Assay type in all cases: in vivo
Assay [1] concerns MCAO rat model of ischemic stroke. The experiment in a line: Stepping test (forelimb akinesia) after tMCAO. Particulars: Example 2; for stepping test performance vs vehicle control: all experimental conditions (s.c. daily injection or Alzet pump, 28 days), by Day 21 post-surgery. The protocol:
(§1) For the purposes of this example, Transient middle cerebral artery occlusion (tMCAO) procedure Day is defined as “Day 1” in this study. On the day of surgery anesthesia were induced with 4% isoflurane in a mixture of 70% N2O and 30% O2 and maintained with 1.5-2% isoflurane.
(§2) The tMCAO procedures were performed according to the method described R. Schmid-Elsaesser et al. Briefly, the right CCA (Common Carotid Artery) was exposed through a midline neck incision and carefully dissected free from surrounding nerves and fascia—from its bifurcation to the base of the skull. The occipital artery branches of the ECA (External Carotid Artery) were then isolated, and these branches were dissected and coagulated. The ECA was dissected further distally and coagulated along with the terminal lingual and maxillary artery branches, which was then divided. The ICA (Internal Carotid Artery) was isolated and carefully separated from the adjacent vagus nerve, and the pterygopalatine artery was ligated close to its origin with a 5-0 nylon suture (SMI, Belgium). Next, a 4-0 silk suture was tied loosely around the mobilized ECA stump, and a 4 cm length of 4-0 monofilament nylon suture (the tip of the suture was blunted by using a flame, and the suture was coated with polylysine, prior to insertion) was inserted through the proximal ECA into the ICA and thence into the circle of Willis, effectively occluding the MCA. The surgical wound was closed and the animals were returned to their cages to recover from anesthesia. One hour and a half after occlusion rats were re-anesthetized, the monofilament was withdrawn to allow reperfusion, the surgical wound was closed and rats were returned to their cages.
(§3) Animals were subjected to a modified Modified Neurological Rating Scale (mNRS) at 24 hours post reperfusion. Only animals with an overall score of ≧10 are included in this study. Animals were allocated into the test groups, according to the mNRS results on day 2, in order to have similar distribution of rats performance between groups. Started on day 2, 24 hours post-surgery, each animal is implanted subcutaneously with osmotic Alzet pump and is treated by continuous PanCyte administration (2.5 mg/ml or 25 mg/ml in PBS; SEQ ID NO:22).
Animals were tested for forelimb akinesia in a stepping test. The animal was held with its hind limbs fixed with one hand and the forelimb not monitored with the other, while the unrestrained fore-paw touches a table. The number of adjusting steps were counted while the animal was moved sideways along the table surface (85 cm in approximately five seconds), in the forehand & backhand direction for both forelimbs. […] Four groups were analyzed in this test, a control group (receiving only PBS for 49 days), a group receiving 50 μg/kg PanCyte for 49 days, a group receiving 500 μg/kg PanCyte for 49 days, and a group receiving 50 μg/kg PanCyte for 14 days.
(§4) Animals were subjected to a modified Modified Neurological Rating Scale (mNRS) at 24 hours post reperfusion. Only animals with an overall score of ≧10 were included in this study. Animals were allocated into the test groups, according to the mNRS results on day 2, in order to have similar distribution of rats performance between groups. Starting on day 2, 24 hours post-surgery, animals in groups 4, 5 and 7 were implanted subcutaneously with an osmotic Alzet pump and treated with either 500 μg/kg TXA127 (SEQ ID NO:1), 500 μg/kg PanCyte (SEQ ID NO:22), or 50 μg/kg Linear PanCyte (SEQ ID NO:6). Animals in groups 2, 3 and 6 received 500 μg/kg or 1,000 μg/kg TXA127 or 500 μg/kg PanCyte, administered subcutaneously via daily injection. Animals in group 1 were treated with a daily subcutaneous injection of a PBS (vehicle).
Animals were tested for forelimb akinesia in a stepping test (ST). The animal was held with its hind limbs fixed with one hand and the forelimb not to be monitored with the other, while the unrestrained fore-paw touches the table. […]

Assay [2] has the same test system. Nature of the assay: Forelimb placement test after tMCAO. Particulars: Example 2; 50 μg/kg, s.c. Alzet pump, 28 days; particularly from Day 35 onward. How it is done:
as §1, §2, §3
The limb placing tests were divided into both forelimb and hindlimb tests. For the forelimb-placing test, the examiner held the rat close to a tabletop and scored the rat's ability to place the forelimb on the tabletop in response to whisker, visual, tactile, or proprioceptive stimulation. Similarly, for the hindlimb placing test, the examiner assessed the rat's ability to place the hindlimb on the tabletop in response to tactile and proprioceptive stimulation. […]

The test system is the same in assay [3]. Nature of the assay: Body swing test after tMCAO. To be noted: Example 2, 28 days; for body swing test performance level: Day 49. How it is done:
as §1, §2, §3
The rat was held approximately one inch from the base of its tail. It was then elevated to an inch above a surface of a table. The rat was held in the vertical axis, defined as no more than 10° to either the left or the right side. A swing was recorded whenever the rat moved its head out of the vertical axis to either side. Before attempting another swing, the rat had to return to the vertical position for the next swing to be counted. Twenty (20) total swings were counted. A normal rat typically has an equal number of swings to either side. Following focal ischemia, rats tend to swing to the contralateral side (left side in this example). Body swing scores are expressed as a percentage of rightward over total swings. […] Four groups were analyzed in this test, a control group (receiving only PBS for 49 days), a group receiving 50 μg/kg PanCyte for 49 days, a group receiving 500 μg/kg PanCyte for 49 days, and a group receiving 50 μg/kg PanCyte for 14 days.
as §4, with “Animals in group 1 were treated with a daily subcutaneous injection of a PBS (vehicle).” left out

The test system is the same in assay [4]. Nature of the assay: Overall post-stroke performance in tMCAO rats, Example 2 comparison. To be noted: 50 μg/kg Linear PanCyte as compared to 500 μg/kg of PanCyte. How it is done:
The animal model, surgical procedures, and animal care procedures and conditions were as described above for Example 1 unless otherwise specified.
as §4
In addition to the performance benefits discussed above, blood flow and blood vessel diameter was measured using Laser Doppler, according to known protocols, in each non-Alzet group on Day 50.

Take “Asp^1-Arg^2-Val^3-Ser^4-Ile^5-His^6-Cys^7 (SEQ ID NO:6) (DRVSIHC) [Linear PanCyte, non-cyclized form of PanCyte]”: the “stepping test results compared with ten times as much TXA127 or PanCyte” value in assay [1] (50 ug/kg, s.c. Alzet pump, 28 days, vs 500 μg/kg TXA127 or PanCyte) is “substantially equivalent”. The “stepping test performance vs vehicle control” value in assay [1] is “significantly improved the performance of treated rats”. For the same substance, the “forelimb placing test performance compared with the other experimental groups” value in assay [2] is reported as “best performance”. Also, the “body swing test performance vs vehicle control” value in assay [3] (50 μg/kg s.c. Alzet pump, Day 21) is “showed improvement by Day 21”; in assay [3] (50 μg/kg s.c. Alzet pump, Day 28), “significant improvement in performance by Day 28”. Moreover, the “body swing test performance level” value in assay [3] (50 μg/kg s.c. Alzet pump) is recorded as “near-normal (uninjured) level”. The “effectiveness compared with PanCyte” value in assay [4] was “almost equally effective”.

Turning to “Asp^1-Arg^2-Val^3-Tyr^4-Ile^5-His^6-Pro^7 (SEQ ID NO: 1) (DRVYIHP) [TXA127]”, in assay [1], the “stepping test performance vs vehicle control” value was “significantly improved the performance of treated rats”. For the same substance, the “body swing test performance vs vehicle control” value in assay [3] (500 μg/kg daily s.c. injection, before Day 35) is listed as “did not show significant results until Day 35”; in assay [3] (500 μg/kg s.c. Alzet pump, Day 21), “showed improvement by Day 21”; in assay [3] (500 μg/kg s.c. Alzet pump, Day 28), “significant improvement in performance by Day 28”; in assay [3] (1,000 μg/kg daily s.c. injection, Day 21), “showed improvement by Day 21”; in assay [3] (1,000 μg/kg daily s.c. injection, Day 28) it was “significant improvement in performance by Day 28”. Moreover, the “body swing test performance level” value is “near-normal (uninjured) level” in assay [3] (TXA 1,000 g/kg group, daily s.c. injection) and “near-normal (uninjured) level” in assay [3] (TXA Alzet group, 500 μg/kg s.c. Alzet pump).
